This is an account of results in patent publication US4661491A, “Alfuzosine compositions and use” (Synthelabo, priority 1985, dated 1987).

Experiment [1] can be described thus: Clinical study in paraplegics, micturition test. The format is in vivo, human. As to the method: A clinical study was also performed in paraplegics.
The paraplegic, or spinal man, gives rise to an experimental model of the peripheral receptors, since he embodies a disconnection from the influence of the higher, diencephalic and cortical nerve centres.
Given the localization of the alpha-adrenergic receptors in the posterior urethra and the vesico-urethral segment or neck, alpha-adrenergic hypertonia is the source of dysuria and disturbances of micturition. The opening of the neck and the fall in the pressure gradient in the posterior urethra are the two conditions required for the production of effective micturition.
Alfuzosine was administered intravenously, and then orally if the first test is positive. 5 mg of alfuzosine are injected intravenously in the course of 20 min.
The test is considered to be positive if an initiation of micturition, that is to say, necessarily, opening of the neck, takes place.
For patients for whom the test is positive, the administration of alfuzosine was then performed orally at the rate of 9 mg/24 h/28 d.

Experiment [2] is described as follows: Clinical study, sphincterometric measurements in patients with dysuria of neurological origin with urethral hypertonia. The following applies: 5 mg i.v. over 20 min; p<0.001. The format is in vivo, human. As to the method: By means of clinical studies, it has also been possible to show the efficacy of alfuzosine in patients suffering from dysuria of neurological origin with urethral hypertonia.
5 mg of alfuzosine are injected intravenously continuously for a period of 20 min. Sphincterometric measurements were made using an electronic micro-sensor, before and after the injection of the drug, at the bladder neck and at the striated sphincter of the posterior urethra.

A further experiment addresses T1, α-adrenergic receptors (Oryctolagus cuniculus, UniProt O02824).
T1 construct: The bladder and urethra are rapidly removed and placed in lukewarm Krebs solution; from tissue; host or cells: rabbit bladder trigone muscle and urethra ring, isolated organ
T1 sequence (O02824 1-466): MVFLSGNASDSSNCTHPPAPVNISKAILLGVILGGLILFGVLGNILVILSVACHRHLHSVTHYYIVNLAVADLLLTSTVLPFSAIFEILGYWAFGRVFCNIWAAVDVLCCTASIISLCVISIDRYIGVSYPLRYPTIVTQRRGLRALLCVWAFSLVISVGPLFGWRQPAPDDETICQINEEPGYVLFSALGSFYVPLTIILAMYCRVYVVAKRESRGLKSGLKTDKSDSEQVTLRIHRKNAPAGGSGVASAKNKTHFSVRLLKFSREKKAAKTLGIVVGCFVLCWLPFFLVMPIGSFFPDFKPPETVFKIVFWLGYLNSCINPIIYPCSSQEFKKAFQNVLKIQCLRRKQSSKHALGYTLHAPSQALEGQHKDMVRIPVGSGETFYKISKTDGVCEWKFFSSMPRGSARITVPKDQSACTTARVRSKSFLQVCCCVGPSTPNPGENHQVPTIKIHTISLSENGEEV
Kind of experiment: Phenylephrine-induced contraction of rabbit trigone muscle and urethra preparations. The class given is biochemical. As to the method:
Male rabbits (CEGAN) weighing 3 to 4 kg are sacrificed by exsanguination and cervical dislocation.
The bladder and urethra are rapidly removed and placed in lukewarm Krebs solution containing bicarbonate.
The composition of this Krebs medium is as follows, in mM: NaCl 114; KCl 4.7; CaCl2 2.5; KH2 PO4 1.2; MgSO4 1.2; NaHCO3 25.0; glucose 11.7; ascorbic acid 1.1. Propranolol (1.0 μM) is added into the Krebs medium to block the β-adrenergic receptors.
The bladder is opened transversely and the "trigone" region of the muscle, located on the dorsal surface of the bladder and between the two ureters, is dissected out.
A 5 mm ring of urethra, from the region situated between the base of the bladder and the prostate, is also prepared.
The portions of trigone muscle and urethra are washed under a tension of 1 g in Krebs medium.
The contraction-response curve to cumulated concentrations of phenylephrine is determined.
Additions of the agonist are performed every 5 min. The tissues are washed until the original tension is reestablished, and are then incubated for 30 min with alfuzosine. A second response curve to phenylephrine is determined in the presence of alfuzosine.
The response curves to concentrations of phenylephrine in the presence or absence of alfuzosine are expressed as a percentage of the maximum response obtained relative to the control curve.
The power of alfuzosine is calculated in the form of pA2 by Schild's method, where pA2 =negative logarithm of the molar concentration of alfuzosine which causes a rightward shift of the response curve to the agonist.

Consider `COc1cc2nc(N(C)CCCNC(=O)C3CCCO3)nc(N)c2cc1OC` (stereo not shown) [Alfuzosine], for which the “initiation of micturition under oral treatment” value in experiment [1] (paraplegics positive in i.v. test, per os 9 mg/24 h/28 d) was “enabled micturition to be rendered easier to initiate”. The “intra-urethral pressures after injection” value in experiment [1] (paraplegics, 5 mg i.v. in 20 min) is “decrease significantly”. In experiment [2], the “pressure decrease at the bladder neck” value stood at 44% and the “pressure decrease at the striated sphincter” value was 39%. The “shift of the response curve to phenylephrine” value on α-adrenergic receptors (alfuzosine 3.0 μM, 30 min incubation, trigone muscle and urethra) is on record as “significant rightward parallel shift”. In addition, the Kb on α-adrenergic receptors (antagonism of phenylephrine contraction, read-out: pA2 (Schild analysis) (converted)) is 89.1 nM. At α-adrenergic receptors (trigone muscle and urethra, 30 min), the “reduction in the maximum contractile effects of phenylephrine” value lay in the range of 20 to 30%.
